From publication PMC11249953, “c-KIT inhibitors reduce pathology and improve behavior in the Tg(SwDI) model of Alzheimer’s disease” (Life Science Alliance, 2024)

Columns and labels:
CIT = target: T1, CIT (Homo sapiens, UniProt O14578); assay: KINOMEscan competition binding, CIT; details: 10 µM compound; for remaining binding at 10 µM: lower = stronger binding, read-out: CIT %Ctrl @ 10000nM (POC)
T1 construct: DNA label for qPCR read-out (T7 phage fusion or DNA tag); purchased Eurofins DiscoverX Corporation; host or cells: T7 phage in E. coli (BL21-derived) or HEK-293
Description: (§1) The KINOMEscan screening platform (Eurofins DiscoverX Corporation) was performed using active site-directed competition binding assay to quantitatively measure interactions between BK40143 and BK40197 and more than 450 human kinases and disease relevant mutant variants. […] Screening “hits” are identified by measuring the amount of kinase captured in test (BK40143 and BK40197) versus control samples by using a quantitative and ultra-sensitive qRT-PCR method that detects the associated DNA label. BK40143 and BK40197 were screened at 10 µM concentration, and results for primary screen binding interactions were reported as “% Ctrl” (POC), where lower numbers indicate stronger hits and calculated as follows: [test compound signal−positive control signal/negative control signal−positive control signal]×100
(§2) negative control = DMSO (100% Ctrl)
(§3) positive control = control compound (0% Ctrl)
(§4) Based on screening data from of profiled compounds, a proportional relationship between primary screening results and corresponding compound/target affinities can be described as binding constants (Kd values) for the indicated ranges of POC values with tighter binding (higher affinity) interactions associated with lower POC values and weaker binding (lower affinity) associated with higher POC values. Briefly, kinase-tagged T7 phage strains were grown in parallel in 24-well blocks in an E. coli host derived from the BL21 strain. E. coli were grown to log-phase and infected with T7 phage from a frozen stock (multiplicity of infection = 0.4) and incubated with shaking at 32°C until lysis (90–150 min). The lysates were centrifuged (6,000g) and filtered (0.2 μm) to remove cell debris. The remaining kinases were produced in HEK-293 cells and subsequently tagged with DNA for qRT-PCR detection. Streptavidin-coated magnetic beads were treated with biotinylated small molecule ligands for 30 min at RT to generate affinity resins for kinase assays. The liganded beads were blocked with excess biotin and washed with blocking buffer (1% BSA, 0.05% Tween 20, 1 mM DTT; SeaBlock [Pierce]) to remove unbound ligand and to reduce non-specific phage binding. Binding reactions were assembled by combining kinases, liganded affinity beads, and test compounds in 1x binding buffer (20% 0.17x PBS, 0.05% Tween 20, 6 mM DTT; SeaBlock). Test compounds were prepared as 100x stocks in 100% DMSO and directly diluted into the assay. All reactions were performed in polypropylene 384-well plates in a final volume of 0.02 ml. The assay plates were incubated at RT with shaking for 1 h and the affinity beads were washed with wash buffer (1x PBS, 0.05% Tween 20). […] The kinase concentration in the eluates was measured by qRT-PCR.

phospho-c-KIT = assay: Western blot for phospho-c-KIT in brain lysates; type: in vivo, mouse; details: TgAPP mice; BK40143 5 mg/kg, BK40197 45 mg/kg; vs DMSO
From the text: c-KIT is responsible for mast cell development and homeostasis ([Lake et al, 1978]; [Linnekin, 1999]; [Kitamura et al, 2006]). TKs are the central driving force for processes leading to mast cell activation ([Parravicini et al, 2002]; [Gomez et al, 2005]). Multiple receptors are capable of mediating or modifying mast cell activation ([Kraft & Kinet, 2007]; [Kuehn & Gilfillan, 2007]), the major receptor responsible being FcεRI, the high affinity receptor for immunoglobulin E (IgE) ([Rivera & Gilfillan, 2006]). Mast cells are tissue-resident cells of hematopoietic lineage which are derived from CD13^+CD34^+KIT(CD117)^+ bone marrow pluripotent progenitors ([Kirshenbaum et al, 1999]). Although mast cells play an important role in the innate immune system ([Marshall, 2004]; [Galli et al, 2005]), these cells are also responsible for the detrimental exaggerated reactions to antigen ([Galli et al, 2008]) that follow the release of potent inflammatory mediators as a consequence of receptor-mediated mast cell activation ([Metcalfe et al, 1997]). The progression of these cells to fully mature mast cells is dependent on c-KIT activation which occurs because of stem cell factor-induced c-KIT dimerization and auto-phosphorylation ([Kirshenbaum et al, 1999]). […]
Brain hemispheres from treated and untreated animals were lysed in 1x STEN buffer and protein concentrations were measured via BCA assay. […]

SYK = target: T2, SYK (Homo sapiens, UniProt P43405); assay: KINOMEscan competition binding, SYK; details: 10 µM compound; for remaining binding at 10 µM: lower = stronger binding, read-out: SYK %Ctrl @ 10000nM (POC)
T2 construct: DNA label for qPCR read-out (T7 phage fusion or DNA tag); purchased Eurofins DiscoverX Corporation; host or cells: T7 phage in E. coli (BL21-derived) or HEK-293
Description: as §1, §2, §3, §4

[1] = test system: microglial PAR2-tryptase interactions in TgAPP mice; assay: Proximity ligation assay PAR2-tryptase; type: in vivo, mouse; details: vs DMSO
Description: Slides containing two consecutive brain slices were blocked in Duolink blocking solution for 1 h in a slide chamber containing water at 37°C. Blocking solution was then removed and PAR2 (1:250) and tryptase (1:250) primary antibodies were added at the concentrations specified above and incubated at 4°C overnight. The next day, primaries were removed and slides were washed twice for 5 min in wash buffer before addition of plus and minus probes for incubation at 37°C in a humid chamber for 1 h. Slides were then washed again twice for 5 min in wash buffer before addition of ligation buffer for incubation at 37°C in a humid chamber for 30 min. Next, slides were washed twice for 5 min in wash buffer, and polymerase was added for incubation at 37°C in a humid chamber for 100 min. Finally, slides were washed twice for 10 min in wash buffer and mounted using DAPI mounting medium and a glass coverslip. Slides were imaged on a Leica Dmi8 light microscope.

T1 sequence (O14578 whole entry, the tested form may be a part): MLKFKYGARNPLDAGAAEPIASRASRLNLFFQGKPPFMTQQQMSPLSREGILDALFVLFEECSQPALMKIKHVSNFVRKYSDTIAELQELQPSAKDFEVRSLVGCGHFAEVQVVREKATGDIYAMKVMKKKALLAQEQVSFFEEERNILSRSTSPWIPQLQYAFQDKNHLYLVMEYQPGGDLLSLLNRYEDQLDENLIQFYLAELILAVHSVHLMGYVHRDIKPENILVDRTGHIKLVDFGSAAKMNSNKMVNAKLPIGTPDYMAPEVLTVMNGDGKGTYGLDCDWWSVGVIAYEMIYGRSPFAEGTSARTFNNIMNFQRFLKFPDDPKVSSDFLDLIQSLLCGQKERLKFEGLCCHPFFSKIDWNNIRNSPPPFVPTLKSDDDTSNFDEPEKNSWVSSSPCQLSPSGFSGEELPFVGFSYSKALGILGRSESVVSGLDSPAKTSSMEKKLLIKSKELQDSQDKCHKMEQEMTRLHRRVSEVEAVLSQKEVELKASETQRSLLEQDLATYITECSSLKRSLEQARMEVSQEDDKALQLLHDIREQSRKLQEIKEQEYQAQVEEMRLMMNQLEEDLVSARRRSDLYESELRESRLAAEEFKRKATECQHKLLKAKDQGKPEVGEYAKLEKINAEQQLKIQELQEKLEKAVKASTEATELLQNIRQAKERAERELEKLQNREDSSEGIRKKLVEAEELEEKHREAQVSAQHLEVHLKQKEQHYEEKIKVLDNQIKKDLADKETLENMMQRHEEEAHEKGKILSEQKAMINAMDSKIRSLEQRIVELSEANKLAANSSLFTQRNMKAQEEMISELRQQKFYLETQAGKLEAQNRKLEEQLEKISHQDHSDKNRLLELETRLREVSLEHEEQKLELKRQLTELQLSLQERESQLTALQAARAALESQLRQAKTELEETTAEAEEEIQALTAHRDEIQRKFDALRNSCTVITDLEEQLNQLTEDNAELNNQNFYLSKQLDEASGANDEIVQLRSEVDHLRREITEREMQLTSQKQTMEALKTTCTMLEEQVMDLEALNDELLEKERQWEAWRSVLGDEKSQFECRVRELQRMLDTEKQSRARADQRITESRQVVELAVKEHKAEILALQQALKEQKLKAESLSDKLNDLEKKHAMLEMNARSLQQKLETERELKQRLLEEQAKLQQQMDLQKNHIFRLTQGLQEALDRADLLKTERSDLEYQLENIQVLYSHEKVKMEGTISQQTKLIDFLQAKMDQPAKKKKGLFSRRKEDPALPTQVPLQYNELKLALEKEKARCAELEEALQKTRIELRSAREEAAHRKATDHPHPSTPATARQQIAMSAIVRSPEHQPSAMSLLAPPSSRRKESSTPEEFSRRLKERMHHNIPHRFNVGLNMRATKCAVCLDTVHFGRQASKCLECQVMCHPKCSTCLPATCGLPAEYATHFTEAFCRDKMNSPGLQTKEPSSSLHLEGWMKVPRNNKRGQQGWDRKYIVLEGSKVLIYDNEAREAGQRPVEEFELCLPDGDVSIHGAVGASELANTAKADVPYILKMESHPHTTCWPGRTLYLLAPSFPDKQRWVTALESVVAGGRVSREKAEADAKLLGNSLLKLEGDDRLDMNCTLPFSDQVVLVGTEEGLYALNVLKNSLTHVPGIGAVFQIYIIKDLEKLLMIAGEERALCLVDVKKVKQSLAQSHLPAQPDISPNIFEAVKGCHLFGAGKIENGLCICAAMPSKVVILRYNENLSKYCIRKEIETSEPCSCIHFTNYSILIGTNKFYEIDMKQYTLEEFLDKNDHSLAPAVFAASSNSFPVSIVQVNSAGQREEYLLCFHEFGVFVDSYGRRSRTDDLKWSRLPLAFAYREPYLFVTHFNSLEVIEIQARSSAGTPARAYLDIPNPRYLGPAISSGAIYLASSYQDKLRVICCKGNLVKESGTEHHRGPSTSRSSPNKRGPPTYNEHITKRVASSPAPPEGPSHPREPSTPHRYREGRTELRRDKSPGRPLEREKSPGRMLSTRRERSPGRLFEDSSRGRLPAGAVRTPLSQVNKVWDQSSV

Structure (SMILES) | inhibition at 10 µM (CIT) [%] | remaining binding at 10 µM (CIT) [%] | phospho-c-KIT levels in brain (Western blot) (phospho-c-KIT) | inhibition at 10 µM (SYK) [%] | remaining binding at 10 µM (SYK) [%] | mast cell tryptase / microglial PAR2-tryptase interactions (proximity ligation) [1]
Cc1cccc(-c2cc3nccc(N4CCOCC4)c3s2)c1 [BK40197] | 19 | 81 | similar, albeit not statistically significant, trend | 56 | 44 | reduced mast cell mediators such as tryptase
Cc1cccc(-c2cc3nccc(Nc4ccccc4)c3s2)c1 [BK40143] | 97.2 | 2.8 | significant decrease in phospho-c-KIT levels | 94.5 | 5.5 | reduced mast cell mediators such as tryptase
